Entries after “also recorded” stand apart in the source; their conditions may differ.
Assays:
Format in all cases: cell-based, mouse
[1] = system: mAPP N2a cells; experiment: Immunoblotting analysis of protein levels in mAPP N2a cells; settings: immunoblot; for Nrf1 protein level / Nrf2 protein level: P=0.004
[2] = system: Aβ40 and Aβ42 levels in mAPP N2a cells; experiment: Sandwich ELISA of soluble Aβ40 and Aβ42 levels in mAPP N2a cells; settings: ligand 1-treated mAPP N2a cells vs untreated mAPP cells
Source text: ELISA Ligand based inhibition of BACE1 activity, Aβ 40 and 42. BACE1 activity, Levels of Aβ40 and 42. To determine whether ligand 1 lowers BACE1 activity and reducing the Aβ40 and Aβ42 levels, the inventors measured BACE1 activity, Aβ40 and Aβ42 levels in mutant APP cells (N2a+mutant cDNA transfected) treated with ligand 1 using Sandwich ELISA.
The N2a cells grown for 6 days in a serum-free medium (1:1 mixture of DMEM and OptiMEM, plus penicillin and streptomycin (Invitrogen, Carlsbad, CA, USA) until the cells developed neuronal processes. As shown in (FIG. 10), these cells were used for 4 groups—one control group and 3 treatment groups. 1) untreated N2a cells (the control group), 2) N2a cells treated with ligand 1 (N2a+ligand 1), 3) N2a cells transfected mAPP with the (lipofectamine) (20 μM final concentration for 6 hrs (mAPP), 4) N2a cells transfected with mAPP cDNA for 6 hrs, treated with ligand 1 (mAPP+ligand 1 treatment group), N2a cells treated with ligand 1 for 24 hrs and then treated with the mAPP cDNA for 6 hrs (ligand 1+mAPP treatment group). […]
ELISA Ligand based BACE1 inhibition of Aβ 40 and 42. […] For each sample, Aβ1-40 and Aβ1-42 were measured with commercial colorimetric ELISA kits (Biosource International, Camarillo, CA, USA) specific for human. […] Protein concentrations of the homogenates were determined following the […], and Aβ was expressed as pg Aβ/mg protein.

[3] = system: mAPP N2a cells; experiment: Immunofluorescence analysis of BACE1, 6E10 and CTF; settings: ligand 1-treated mAPP N2a cells relative to untreated mAPP N2a cells, P=0.01
Experimental: Immunofluorescence analysis of BACE1, 6E10 and CTF. To determine the effect of ligand 1 on BACE1, 6E10 and C-terminal fragments, immunofluorescence analysis was performed on four different groups of cells: 1) untreated N2a cells versus; 2) N2a+ligand 1; 3); cells transfected with mAPP and 4) mAPP+ligand 1.
Immunofluorescence analysis of BACE1, 6E10 and CTF. To determine BACE1, 6E10, CTF inhibition, mitochondrial network, immunofluorescence analysis was performed using mutant AβPP cells and untransfected N2a and TOM20 antibody as described in (35). The fixed cells were washed with warm PBS, fixed in freshly prepared 4% paraformaldehyde in PBS for 10 minutes, then washed with PBS and permeabilized with 0.1% Triton-X100 in PBS. They were blocked with a 1% blocking solution (Invitrogen) for 1 hour at room temperature. All sections were incubated overnight with TOM20 antibody (1:250 dilution). After incubation, the cells were washed 3 times with PBS, for 10 minutes each. The cells were incubated with a secondary antibody conjugated with Fluor 488 (Invitrogen) for 1 hour at room temperature. The cells were washed 3 times with PBS and mounted on slides. Photographs were taken with a multiphoton laser scanning microscope system (ZeissMeta LSM510). To quantify the immunoreactivity of TOM20 antibody for each treatment, 10-15 photographs were taken at ×40 magnifications, and statistical significance was assessed, using one-way ANOVA for TOM20 protein.

[4] = mAPP+ligand 1 relative to mAPP cells, P=0.001
[5] = mAPP+ligand 1 relative to mAPP cells, P=0.002, listed as ligand 1
[6] = mAPP+ligand 1 relative to mAPP cells, listed as ligand 1
[7] = mAPP+ligand 1 relative to mAPP cells, listed as ligand1
[8] = mAPP+ligand 1 relative to mAPP cells, P=0.01, listed as ligand 1
[9] = mAPP+ligand 1 relative to mAPP cells, P=0.01, listed as ligand1
[10] = mAPP+ligand 1 relative to mAPP cells, P=0.02

Q: How did the BACE1 protein level ([1]; ligand 1 treated cells relative to mAPP cells) turn out when “[(6As,8S,10aS,12aS)-10a, 12a-dimethyl-2-oxo-3,4,4a,4b,5,6,6a,7,8,9,10,10b,11,12-tetradecahydro-1H-naphtho[2,1-f]quinolin-8-yl] 4-[4-[bis(2-chloroethyl)amino]phenyl]butanoate [Ligand 1]” was run?
A: significantly reduced

Q: What about the “C-terminal fragment C99 protein level” value [1, 4] of the same substance?
A: significantly decreased; also recorded: significantly reduced

Q: What about the Fis1 protein level [1, 4] of the same substance?
A: significantly decreased

Q: What about the “C-terminal fragment C83 protein level” value [1, 5] of the same substance?
A: significantly decreased; also recorded: significantly reduced

Q: And the Mfn1 protein level [1, 5]?
A: increased

Q: What about the Mfn1 protein level ([1]; mAPP+ligand 1 relative to mAPP cells, P=0.002, listed as ligand1) of the same substance?
A: significantly increased

Q: What about the Nrf1 protein level [1, 6] of the same substance?
A: increased

Q: And the Nrf2 protein level [1, 6]?
A: increased

Q: And the Nrf1 protein level [1, 7]?
A: significantly increased

Q: What about the Nrf2 protein level [1, 7] of the same substance?
A: significantly increased

Q: And the Drp1 protein level ([1]; mAPP+ligand 1 relative to mAPP cells, P=0.01)?
A: significantly decreased

Q: What about the Opa1 protein level [1, 8] of the same substance?
A: increased

Q: What about the PGC1α protein level [1, 8] of the same substance?
A: increased

Q: And the Opa1 protein level [1, 9]?
A: significantly increased

Q: And the PGC1α protein level [1, 9]?
A: significantly increased

Q: What about the PSD95 protein level [1, 10] of the same substance?
A: significantly increased

Q: What about the Synaptophysin protein level [1, 10] of the same substance?
A: significantly increased

Q: What about the “Full-length mutant APP protein level” value ([1]; mAPP+ligand 1 relative to mAPP cells, P=0.03) of the same substance?
A: significantly decreased; also recorded: significantly reduced

Q: And the MAP2 protein level ([1]; mAPP+ligand 1 relative to mAPP cells, P=0.04)?
A: significantly increased

Q: And the Mfn2 protein level [1, 6]?
A: increased

Q: What about the TFAM protein level [1, 6] of the same substance?
A: increased

Q: And the Mfn2 protein level [1, 7]?
A: significantly increased

Q: And the TFAM protein level [1, 7]?
A: significantly increased

Q: What about the Aβ42 level ([2]; P=0.005) of the same substance?
A: significantly lower; also recorded: reduced

Q: What about the Aβ40 level ([2]; soluble, P=0.01) of the same substance?
A: decreased; also recorded: reduced

Q: What about the “6E10 immunoreactivity (mutant APP and Aβ)” value [3] of the same substance?
A: significantly lower; also recorded: significantly reduced

Q: What about the BACE1 immunoreactivity [3] of the same substance?
A: significantly lower; also recorded: significantly reduced

Q: And the “C-terminal fragment (CTF) immunoreactivity” value [3]?
A: significantly lower; also recorded: significantly reduced

From patent publication US12042492B2 (priority 2020, dated 2024)
